Key:
[1] = target: T1, recombinant human LTA4 hydrolase (rhLTA4H) (Homo sapiens, UniProt P09960); experiment: Recombinant human LTA4 hydrolase assay for LTA4 hydrolase inhibitor activity; assay type: biochemical; details: rhLTA4H, LTA4 substrate, LTB4 by immunoassay; single determination or average; read-out: IC50
T1 construct: made in house; host or cells: Spodoptera frugiperda (Sf-9) cells, recombinant baculovirus (pFastBac1)
T1 sequence (P09960 1-611): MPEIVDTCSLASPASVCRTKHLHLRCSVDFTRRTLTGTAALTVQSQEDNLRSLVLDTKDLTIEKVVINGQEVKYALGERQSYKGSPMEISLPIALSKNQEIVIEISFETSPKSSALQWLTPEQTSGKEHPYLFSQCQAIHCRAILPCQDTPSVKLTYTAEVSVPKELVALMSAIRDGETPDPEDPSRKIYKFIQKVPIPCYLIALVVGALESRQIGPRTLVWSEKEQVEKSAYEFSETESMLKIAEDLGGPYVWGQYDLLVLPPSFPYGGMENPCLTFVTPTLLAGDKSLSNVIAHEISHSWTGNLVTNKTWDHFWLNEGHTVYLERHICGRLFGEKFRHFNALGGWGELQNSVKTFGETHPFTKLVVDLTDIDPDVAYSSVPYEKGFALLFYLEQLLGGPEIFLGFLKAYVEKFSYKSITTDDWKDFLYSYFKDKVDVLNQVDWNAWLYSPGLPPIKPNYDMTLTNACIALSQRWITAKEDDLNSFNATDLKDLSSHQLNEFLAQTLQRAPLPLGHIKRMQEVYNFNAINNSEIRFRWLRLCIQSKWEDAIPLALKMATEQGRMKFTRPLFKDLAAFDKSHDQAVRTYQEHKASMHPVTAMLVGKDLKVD
Method in brief: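 Recombinant human LTA4H from baculovirus-infected Sf-9 cells (10 ng) pre-incubated 10 min at rt with compound (10% DMSO in dilutions), then reacted with free-acid LTA4 for 30 min at rt. LTB4 measured by ELISA; IC50 by nonlinear regression. Values are single determinations or averages.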

[2] = test system: LTB4 production by calcium ionophore-stimulated murine blood; experiment: LTB4 production by calcium ionophore-stimulated murine blood for LTA4H inhibitor activity; assay type: cell-based, CD-1 mice; details: Mus musculus; murine blood diluted 1 in 15, calcium ionophore A23187, LTB4 by immunoassay; read-out: IC50
Procedure: Assay 2: LTB4 Production by Calcium Ionophore-Stimulated Murine Blood for LTA4H Inhibitor Activity
CD-1 mice were sacrificed, and blood was collected in heparin-containing syringes by cardiac puncture. […] After the microtiter plate contents were incubated for 15 min at 37° C. in a humidified incubator, calcium ionophore A23187 (Sigma Chemical Co., St. Louis, Mo.) was added to each sample well (final concentration=7 μg/mL). The incubation was continued under the same conditions for an additional 30 min to allow LTB4 formation. The reaction was terminated by centrifugation (833×g, 10 min at 4° C.), and supernatants were analyzed for LTB4 by a commercially available enzyme-linked immunoassay (Cayman Chemical Co.) according to the manufacturer's instructions. Positive controls, under essentially identical conditions but without addition of an inhibitor compound, and negative unstimulated controls, containing all assay components except calcium ionophore, were routinely run in each experiment. […] The values presented here are the result of a single determination or an average of two or more determinations, as indicated in parentheses following each value. For compounds tested three or more times, the average value is followed by the standard deviation

| IC50 [1] | IC50 [2] | Structure (SMILES) |
| --- | --- | --- |
| 9.6 nM | 100 nM | c1cnc2nc(Oc3ccc(CCN4CCC(c5ccncc5)CC4)cc3)sc2c1 [Example 65, 2-{4-[2-(4-Pyridin-4-ylpiperidin-1-yl)ethyl]phenoxy}[1,3]thiazolo[4,5-b]pyridine] |
| 6.5 nM | 230 nM | NC(=O)N1CC2CN(CCc3ccc(Oc4nc5ncccc5s4)cc3)CC2C1 (stereo not shown) [Example 74, 5-{2-[4-([1,3]Thiazolo[4,5-b]pyridin-2-yloxy)Phenyl]ethyl}hexahydropyrrolo[3,4-c]pyrrole-2(1H)-carboxamide] |
| 27 nM | 4250 nM | O=C(O)C1CCN(CCc2ccc(Oc3nc4ncccc4s3)cc2)CC1 [Example 81, 1-{2-[4-([1,3]Thiazolo[4,5-b]pyridin-2-yloxy)phenyl]ethyl}piperidine-4-carboxylic acid] |
| 30 nM | 24 nM | F[C@@H]1CCN(Cc2ccc(Oc3nc4ncccc4s3)cc2)C1 [Example 87, 2-(4-{[(3R)-3-Fluoropyrrolidin-1-yl]methyl}phenoxy)[1,3]thiazolo[4,5-b]pyridine] |
| 0.8 nM | 23 nM | C[C@H]1CCCCN1Cc1ccc(Oc2nc3ncccc3s2)cc1 [Example 90, 2-(4-{[(2S)-2-Methylpiperidin-1-yl]methyl}phenoxy)[1,3]thiazolo[4,5-b]pyridine] |
| 39 nM | 680 nM | c1cnc2nc(Oc3ccc(CNCCN4CCCCC4)cc3)sc2c1 [Example 91, 2-Piperidin-1-yl-N-[4-([1,3]thiazolo[4,5-b]pyridin-2-yloxy)benzyl]ethanamine] |
| 4 nM | 67 nM | FC(F)(F)C1CCN(Cc2ccc(Oc3nc4ncccc4s3)cc2)CC1 [Example 92, 2-(4-{[4-(Trifluoromethyl)piperidin-1-yl]methyl}phenoxy)[1,3]thiazolo[4,5-b]pyridine] |
| 4 nM | 35 nM | O[C@@H]1CCN(Cc2ccc(Oc3nc4ncccc4s3)cc2)C1 [Example 94, (3R)-1-[4-([1,3]Thiazolo[4,5-b]pyridin-2-yloxy)benzyl]pyrrolidin-3-ol] |
| 11 nM | 29 nM | OCC1CCN(Cc2ccc(Oc3nc4ncccc4s3)cc2)CC1 [Example 95, {1-[4-([1,3]Thiazolo[4,5-b]pyridin-2-yloxy)benzyl]piperidin-4-yl}methanol] |
| 24 nM | 37 nM | FC1CCN(Cc2ccc(Oc3nc4ncccc4s3)cc2)CC1 [Example 96, 2-{4-[(4-Fluoropiperidin-1-yl)methyl]phenoxy}[1,3]thiazolo[4,5-b]pyridine] |
| 1 nM | 13 nM | CC1CCN(Cc2ccc(Oc3nc4ncccc4s3)cc2)CC1 [Example 97, 2-{4-[(4-Methylpiperidin-1-yl)methyl]phenoxy}[1,3]thiazolo[4,5-b]pyridine] |
| 15 nM | 210 nM | c1ccc(CC2CCN(Cc3ccc(Oc4nc5ncccc5s4)cc3)CC2)cc1 [Example 102, 2-{4-[(4-Benzylpiperidin-1-yl)methyl]phenoxy}[1,3]thiazolo[4,5-b]pyridine] |

Second part, the compound before the results:

| Structure (SMILES) | IC50 [1] | IC50 [2] |
| --- | --- | --- |
| CCCN(CCc1ccc(Oc2nc3ncccc3s2)cc1)CC1CC1 [Example 57, N-(Cyclopropylmethyl)-N-{2-[4-([1,3]thiazolo[4,5-b]pyridin-2-yloxy)phenyl]ethyl}propan-1-amine] | 3 nM | 16 nM |
| C[C@H](c1ccccc1)N(C)CCc1ccc(Oc2nc3ncccc3s2)cc1 [Example 58, (1R)—N-Methyl-1-phenyl-N-{2-[4-([1,3]thiazolo[4,5-b]pyridin-2-yloxy)phenyl]ethyl}ethanamine] | 8 nM | 45 nM |
| OC1(c2cccc(C(F)(F)F)c2)CCN(CCc2ccc(Oc3nc4ncccc4s3)cc2)CC1 [Example 64, 1-{2-[4-([1,3]Thiazolo[4,5-b]pyridin-2-yloxy)phenyl]ethyl}-4-[3-(trifluoromethyl)phenyl]piperidin-4-ol] | 27 nM | 220 nM |
| NC(=O)N1CC2CN(CCc3ccc(Oc4nc5cccnc5s4)cc3)CC2C1 (stereo not shown) [Example 70, 5-{2-[4-([1,3]Thiazolo[5,4-b]pyridin-2-yloxy)phenyl]ethyl}hexahydropyrrolo[3,4-c]pyrrole-2(1H)-carboxamide] | 72 nM | 350 nM |
| NC(=O)N1C[C@H]2CC[C@@H](C1)N2CCc1ccc(Oc2nc3cccnc3s2)cc1 [Example 71, meso-8-{2-[4-([1,3]Thiazolo[5,4-b]pyridin-2-yloxy)phenyl]ethyl}-3,8-diazabicyclo[3.2.1]octane-3-carboxamide] | 81 nM | 280 nM |
| NC(=O)N[C@H]1C[C@H]2CC[C@@H](C1)N2CCc1ccc(Oc2nc3cccnc3s2)cc1 [Example 72, meso-1-[(3-endo)-8-{2-[4-([1,3]Thiazolo[5,4-b]pyridin-2-yloxy)phenyl]ethyl}-8-azabicyclo[3.2.1]oct-3-yl]urea] | 47 nM | 1040 nM |
| NC(=O)N[C@H]1C[C@H]2CC[C@@H](C1)N2CCc1ccc(Oc2nc3ncccc3s2)cc1 [Example 77, meso-1-[(3-endo)-8-{2-[4-([1,3]Thiazolo[4,5-b]pyridin-2-yloxy)Phenyl]ethyl}-8-azabicyclo[3.2.1]oct-3-yl]urea] | 2.9 nM | 190 nM |
| C[C@H]1COCCN1Cc1ccc(Oc2nc3ncccc3s2)cc1 [Example 88, 2-(4-{[(3S)-3-Methylmorpholin-4-yl]methyl}phenoxy)[1,3]thiazolo[4,5-b]pyridine] | 8 nM | 50 nM |
| FC1(F)CCN(Cc2ccc(Oc3nc4ncccc4s3)cc2)C1 [Example 93, 2-{4-[(3,3-Difluoropyrrolidin-1-yl)methyl]phenoxy}[1,3]thiazolo[4,5-b]pyridine] | 55 nM | 520 nM |
| c1cncc(OC2CCN(Cc3ccc(Oc4nc5ncccc5s4)cc3)CC2)c1 [Example 98, 2-(4-{[4-(Pyridin-3-yloxy)piperidin-1-yl]methyl}phenoxy)[1,3]thiazolo[4,5-b]pyridine] | 6 nM | 9 nM |
| c1cnc(OC2CCN(Cc3ccc(Oc4nc5ncccc5s4)cc3)CC2)nc1 [Example 99, 2-(4-{[4-(Pyrimidin-2-yloxy)piperidin-1-yl]methyl}phenoxy)[1,3]thiazolo[4,5-b]pyridine] | 2 nM | 8 nM |
| OC1(c2ccccn2)CCN(Cc2ccc(Oc3nc4ncccc4s3)cc2)CC1 [Example 101, 4-Pyridin-2-yl-1-[4-([1,3]thiazolo[4,5-b]pyridin-2-yloxy)benzyl]piperidin-4-ol] | 11 nM | 3 nM |
| OC1(c2cccc(C(F)(F)F)c2)CCN(Cc2ccc(Oc3nc4ncccc4s3)cc2)CC1 [Example 103, 1-[4-([1,3]Thiazolo[4,5-b]pyridin-2-yloxy)benzyl]-4-[3-(trifluoromethyl)phenyl]piperidin-4-ol] | 10 nM | 120 nM |
| OC1(c2ccc(Cl)cc2)CCN(Cc2ccc(Oc3nc4ncccc4s3)cc2)CC1 [Example 104, 4-(4-Chlorophenyl)-1-[4-([1,3]thiazolo[4,5-b]pyridin-2-yloxy)benzyl]piperidin-4-ol] | 1.9 nM | 28 nM |
| OC1(c2ccccc2)CCN(Cc2ccc(Oc3nc4ncccc4s3)cc2)CC1 [Example 105, 4-Phenyl-1-[4-([1,3]thiazolo[4,5-b]pyridin-2-yloxy)benzyl]piperidin-4-ol] | 0.53 nM | 15 nM |
| CC(=O)N1C[C@H]2CC[C@@H](C1)N2Cc1ccc(Oc2nc3ncccc3s2)cc1 [Example 107, meso-2-(4-{[3-Acetyl-3,8-diazabicyclo[3.2.1]oct-8-yl]methyl}phenoxy)[1,3]thiazolo[4,5-b]pyridine] | 4 nM | 3000 nM |
| NC(=O)N[C@@H]1C[C@H]2CC[C@@H](C1)N2Cc1ccc(Oc2nc3ncccc3s2)cc1 [Example 110, meso-1-{(3-exo)-8-[4-([1,3]Thiazolo[4,5-b]pyridin-2-yloxy)benzyl]-8-azabicyclo[3.2.1]oct-3-yl}urea] | 1 nM | 1440 nM |
